Patent publication US20120184542A1, “PYRIDO PYRIMIDINES” (priority 2011, published 2012)
Counter-ions that a name gives are not always drawn. Like-named read-outs stand apart in the source and are kept apart here.

Key:
[1] = biological target: T1, Human DYRK1A (Homo sapiens, UniProt Q13627); test: DYRK1A Kinase TR-FRET (IMAP-Tb) Assay; format: biochemical; details: for inhibition at 10 µM: read-out: % inhibition of DYRK1A at 10 μM test compound concentration; for IC50: TR-FRET (IMAP-Tb), ATP 70 μM, 37° C. 60 minutes, read-out: Enzyme IC50 (μM) DYRK1A
T1 construct: purchased Invitrogen PV3997
From the text: The kinase TR-FRET (IMAP-Tb) assay uses a fluorescence labeled substrate peptide in the kinase reaction. Upon phosphorylation by the kinase, phosphopeptide is produced, which will be detected by the binding solution provided in IMAP TR-FRET binding kit. After the completion of the kinase reaction, the reaction will be stopped by adding the binding solution containing terbium tracer. This tracer is immobilized on the surface of the IMAP beads, which also contain metal ions on the beads that bind to the phospho-groups of the products. Thus the phosphorylated product of the reaction can enter into close proximity to the tracer, producing resonance energy transfer. Due to the long lifetime of terbium (Tb) fluorescence the detection can be run in time resolved mode, which virtually eliminates fluorescence interference from assay components or compounds.
The TR-FRET signal measurement from this assay, given as an IC50 measurement, is a measure of a test compound's ability to interfere with the phosphorylation of the peptide substrate, that is it inhibits the phosphorylation of the substrate peptide by DYRK1A, and is thus a measure of the test compound's ability to inhibit the activity of DYRK1A.
• 1. Human DYRK1A: from Invitrogen. Part #PV3997 • 2. Substrate Peptide: […] • 3. IMAP TR-FRET IPP Explorer Kit: from Molecular Devices. Part #R8157 • 4. Kinase Assay Buffer (KAB): 10 mM HEPES pH 7.0, 50 mM NaCl, 5 mM MgCl2, 1 mM DTT, 1 mM NaVO4, 200 μg/mL BSA (0.02%) • 5. Assay Plate: Remp polypropylene clear 384-well microplate. […] Detection Plate: Costa black 384-well microplate.
• 1. Transfer 1.5 μL of 20× compound solution to each well of an assay plate. • 2. Add to each well 22.5 μL of KAB Buffer. • 3. Add to each well 3 μL of the solution of DYRK1A and ATP. […] Add to each well 3 μL of the substrate peptide. The assay concentration is 1.0 μM • 5. Incubate the assay plates at 37° C. for 60 minutes. • 6. Add 18 μL of Detection Solution (1:800 diluted Progress bead stock, 1:400 diluted Tb stock, 80% Buffer A, and 20% Buffer B) into each well of detection plates. • 7. Transfer 6 μL of assay solution from the assay plate to the detection plate. • 8. Shake detection plates for 30 minutes. • 9. Read plates in Envision with wavelength set at excitation 340 nm for Tb, emission 490 nm, and […].

[2] = biological target: T2, Human DYRK1B (Homo sapiens, UniProt Q9Y463); test: DYRK1B Kinase TR-FRET (IMAP-Tb) Assay; format: biochemical; details: for inhibition at 10 µM: read-out: % inhibition of DYRK1B at 10 μM test compound concentration; for IC50: TR-FRET (IMAP-Tb), ATP 70 μM, 37° C. 60 minutes
T2 construct: purchased Invitrogen PR8350B (former PV4649)
T2 sequence (Q9Y463 whole entry): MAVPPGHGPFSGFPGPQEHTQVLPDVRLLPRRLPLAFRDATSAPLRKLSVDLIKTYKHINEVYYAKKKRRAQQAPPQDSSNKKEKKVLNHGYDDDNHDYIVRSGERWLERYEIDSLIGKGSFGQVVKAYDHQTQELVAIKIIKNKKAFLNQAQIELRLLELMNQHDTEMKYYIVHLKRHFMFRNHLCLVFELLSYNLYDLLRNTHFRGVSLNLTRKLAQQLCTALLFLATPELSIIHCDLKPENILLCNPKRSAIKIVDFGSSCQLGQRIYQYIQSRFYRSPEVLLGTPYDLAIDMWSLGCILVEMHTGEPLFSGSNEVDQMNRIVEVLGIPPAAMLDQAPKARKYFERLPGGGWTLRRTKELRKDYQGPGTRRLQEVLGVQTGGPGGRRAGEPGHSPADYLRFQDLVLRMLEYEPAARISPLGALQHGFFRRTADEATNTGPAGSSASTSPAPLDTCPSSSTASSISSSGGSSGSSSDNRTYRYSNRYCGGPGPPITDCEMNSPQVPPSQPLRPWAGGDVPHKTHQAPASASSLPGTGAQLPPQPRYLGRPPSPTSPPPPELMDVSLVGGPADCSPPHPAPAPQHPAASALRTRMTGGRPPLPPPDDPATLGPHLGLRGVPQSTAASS

[3] = read-out: Enzyme IC50 (μM) DYRK1B

Row | SMILES | IC50 [1] [µM] | IC50 [2, 3] [µM] | IC50 ([2]; Enzyme IC50 (μM) DYRK1B) [µM] | other results
1 | CC(NC(=O)c1ccc(Cl)c(NC(=O)c2cc3cnc(N4CCOCC4)nc3[nH]c2=O)c1)c1cccc(Cl)c1 (racemic) [Example 143, 2-Morpholin-4-yl-7-oxo-7,8-dihydro-pyrido[2,3-d]pyrimidine-6-carboxylic acid {2-chloro-5-[1-(3-chloro-phenyl)-ethylcarbamoyl]-phenyl}-amide] | – | – | – | inhibition at 10 µM [1]: 57%; inhibition at 10 µM [2]: 24%
2 | COc1ncc2cc(C(=O)Nc3cc(C(=O)O)ccc3Cl)c(=O)[nH]c2n1 [Example 22, 4-Chloro-3-[(2-methoxy-7-oxo-7,8-dihydro-pyrido[2,3-d]pyrimidine-6-carbonyl)-amino]-benzoic acid] | 0.601 | 2.73 | – | –
3 | COc1ncc2cc(C(=O)Nc3cc(C(=O)OCc4ccccc4)ccc3C)c(=O)[nH]c2n1 [Example 26, 3-[(2-Methoxy-7-oxo-7,8-dihydro-pyrido[2,3-d]pyrimidine-6-carbonyl)-amino]-4-methyl-benzoic acid benzyl ester] | 0.323 | 0.496 | – | –
4 | COc1ncc2cc(C(=O)Nc3cc(C(=O)NCc4ccccc4)ccc3C)c(=O)[nH]c2n1 [Example 27, 2-Methoxy-7-oxo-7,8-dihydro-pyrido[2,3-d]pyrimidine-6-carboxylic acid (5-benzylcarbamoyl-2-methyl-phenyl)-amide] | 0.376 | 2 | – | –
5 | COC(=O)c1ccc(C)c(NC(=O)c2cc3cnc(N4CCOCC4)nc3[nH]c2=O)c1 [Example 29, 4-Methyl-3-[(2-morpholin-4-yl-7-oxo-7,8-dihydro-pyrido[2,3-d]pyrimidine-6-carbonyl)-amino]-benzoic acid methyl ester] | 0.0859 | 0.12 | – | –
6 | COC(=O)c1ccc(Cl)c(NC(=O)c2cc3cnc(N4CCOCC4)nc3[nH]c2=O)c1 [Example 33, 4-Chloro-3-[(2-morpholin-4-yl-7-oxo-7,8-dihydro-pyrido[2,3-d]pyrimidine-6-carbonyl)-amino]-benzoic acid methyl ester] | 0.095 | 0.128 | – | –
7 | COC(=O)c1ccc(Cl)c(NC(=O)c2cc3cnc(N4CCCCC4)nc3[nH]c2=O)c1 [Example 34, 4-Chloro-3-[(7-oxo-2-piperidin-1-yl-7,8-dihydro-pyrido[2,3-d]pyrimidine-6-carbonyl)-amino]-benzoic acid methyl ester] | 0.05 | 0.06 | – | –
8 | COC(=O)c1ccc(Cl)c(NC(=O)c2cc3cnc(N4CCNCC4)nc3[nH]c2=O)c1 [Example 37, 4-Chloro-3-[(7-oxo-2-piperazin-1-yl-7,8-dihydro-pyrido[2,3-d]pyrimidine-6-carbonyl)-amino]-benzoic acid methyl ester] | 0.468 | 0.405 | – | –
9 | CCOCCN(CCOCC)c1ncc2cc(C(=O)Nc3cc(C(=O)OC)ccc3Cl)c(=O)[nH]c2n1 [Example 40, 3-({2-[Bis-(2-ethoxy-ethyl)-amino]-7-oxo-7,8-dihydro-pyrido[2,3-d]pyrimidine-6-carbonyl}-amino)-4-chloro-benzoic acid methyl ester] | 0.208 | 0.22 | – | –
10 | COC(=O)c1ccc(Cl)c(NC(=O)c2cc3cnc(NCCO)nc3[nH]c2=O)c1 [Example 41, 4-Chloro-3-{[2-(2-hydroxy-ethylamino)-7-oxo-7,8-dihydro-pyrido[2,3-d]pyrimidine-6-carbonyl]amino}-benzoic acid methyl ester] | 0.0796 | 0.07 | – | –
11 | CCOCCNc1ncc2cc(C(=O)Nc3cc(C(=O)OC)ccc3Cl)c(=O)[nH]c2n1 [Example 42, 4-Chloro-3-{[2-(2-ethoxy-ethylamino)-7-oxo-7,8-dihydro-pyrido[2,3-d]pyrimidine-6-carbonyl]-amino}-benzoic acid methyl ester] | – | – | – | inhibition at 10 µM [1]: 60%; inhibition at 10 µM [2]: 39%
12 | COC(=O)c1ccc(F)c(NC(=O)c2cc3cnc(OC)nc3[nH]c2=O)c1 [Example 43, 4-Fluoro-3-[(2-methoxy-7-oxo-7,8-dihydro-pyrido[2,3-d]pyrimidine-6-carbonyl)-amino]-benzoic acid methyl ester] | 9.8 | – | – | inhibition at 10 µM [2]: 41%
13 | COc1ncc2cc(C(=O)Nc3cc(C(=O)Nc4ccccc4)ccc3Cl)c(=O)[nH]c2n1 [Example 49, 2-Methoxy-7-oxo-7,8-dihydro-pyrido[2,3-d]pyrimidine-6-carboxylic acid (2-chloro-5-phenylcarbamoyl-phenyl)-amide] | – | – | 2.97 | –
14 | COc1ncc2cc(C(=O)Nc3cc(C(=O)N(C)Cc4cccc(Cl)c4)ccc3Cl)c(=O)[nH]c2n1 [Example 65, 2-Methoxy-7-oxo-7,8-dihydro-pyrido[2,3-d]pyrimidine-6-carboxylic acid {2-chloro-5-[(3-chloro-benzyl)-methyl-carbamoyl]-phenyl}-amide] | – | – | 0.586 | –
15 | COc1ncc2cc(C(=O)Nc3cc(C(=O)NCCc4cccc(Cl)c4)ccc3Cl)c(=O)[nH]c2n1 [Example 71, 2-Methoxy-7-oxo-7,8-dihydro-pyrido[2,3-d]pyrimidine-6-carboxylic acid {2-chloro-5-[2-(3-chloro-phenyl)-ethylcarbamoyl]-phenyl}-amide] | – | – | 0.135 | –
16 | Cc1ncc2cc(C(=O)Nc3cc(C(=O)NC(CCN)c4ccccc4)ccc3Cl)c(=O)[nH]c2n1 (centres unmarked) [Example 112, N-(5-(3-Amino-1-phenylpropylcarbamoyl)-2-chlorophenyl)-2-methyl-7-oxo-7,8-dihydropyrido[2,3-d]pyrimidine-6-carboxamide hydrochloride] | – | – | 0.018 | –
17 | CN1CCN(CCCNc2ncc3cc(C(=O)Nc4cc(C(=O)NC(CCN)c5ccccc5)ccc4Cl)c(=O)[nH]c3n2)CC1 (centres unmarked) [Example 120, N-(5-(3-Amino-1-phenylpropylcarbamoyl)-2-chlorophenyl)-2-(3-(4-methylpiperazin-1-yl)propylamino)-7-oxo-7,8-dihydropyrido[2,3-d]pyrimidine-6-carboxamide] | – | – | < 0.0046 | –
18 | COc1ncc2cc(C(=O)Nc3cc(C(=O)N[C@@H](CCN)c4cccc(Cl)c4)ccc3Cl)c(=O)[nH]c2n1 [Example 136, 2-Methoxy-7-oxo-7,8-dihydro-pyrido[2,3-d]pyrimidine-6-carboxylic acid {5-[(S)-3-amino-1-(3-chloro-phenyl)-propylcarbamoyl]-2-chloro-phenyl}-amide] | – | – | 2.55 | –
19 | Cc1ncc2cc(C(=O)Nc3cc(C(=O)N[C@H](CCN)c4ccccc4)ccc3Cl)c(=O)[nH]c2n1 [Example 168, (R)—N-(5-(3-Amino-1-phenylpropylcarbamoyl)-2-chlorophenyl)-2-methyl-7-oxo-7,8-dihydropyrido[2,3-d]pyrimidine-6-carboxamide hydrochloride] | – | – | < 0.0046 | –
20 | COc1nc(C)c2cc(C(=O)Nc3cc(C(=O)NC(CCN)c4ccccc4)ccc3Cl)c(=O)[nH]c2n1 (centres unmarked) [Example 169, N-(5-(3-Amino-1-phenylpropylcarbamoyl)-2-chlorophenyl)-2-methoxy-4-methyl-7-oxo-7,8-dihydropyrido[2,3-d]pyrimidine-6-carboxamide2,2,2-trifluoroacetate] | – | – | 0.101 | –
21 | COc1ncc2cc(C(=O)Nc3cc(C(=O)NC(CCCCN)c4ccccc4)ccc3Cl)c(=O)[nH]c2n1 (centres unmarked) [Example 186, N-(5-(5-Amino-1-phenylpentylcarbamoyl)-2-chlorophenyl)-2-methoxy-7-oxo-7,8-dihydropyrido[2,3-d]pyrimidine-6-carboxamide] | – | – | 1.01 | –
22 | COc1ncc2cc(C(=O)Nc3cc(C(=O)NC(CCCN)c4ccccc4)ccc3Cl)c(=O)[nH]c2n1 (centres unmarked) [Example 189, N-(5-(4-Amino-1-phenylbutylcarbamoyl)-2-chlorophenyl)-2-methoxy-7-oxo-7,8-dihydropyrido[2,3-d]pyrimidine-6-carboxamide] | – | – | 0.0214 | –
23 | COc1ncc2cc(C(=O)Nc3cc(C(=O)NC(CCN)C4CCCCC4)ccc3Cl)c(=O)[nH]c2n1 (centres unmarked) [Example 193, N-(5-(3-Amino-1-cyclohexylpropylcarbamoyl)-2-chlorophenyl)-2-methoxy-7-oxo-7,8-dihydropyrido[2,3-d]pyrimidine-6-carboxamide 2,2,2-trifluoroacetate] | – | – | 0.615 | –
